# Like-named read-outs stand apart in the source and are kept apart here.
# Details: in the air, 40° C., relative humidity 60%
# Procedure: In order to determine the stability of the novel crystal form of the Form C of (6S)-5-MTHF calcium salt, the crystal form was placed in the air at a temperature of 40° C. and a relative humidity of 60%, and the content of remained (6S)-5-MTHF calcium salt was periodically measured.
substance,measurement,setting,value
(6S)-5-methyltetrahydrofolate calcium salt [Form C],Stability (overall result in words),up to 9 days,good stability
same,Appearance,storage 0 days,White crystal
same,Content of remained (6S)-5-MTHF calcium salt,storage 0 days,99.5%
same,Appearance,storage 3 days,White crystal
same,Content of remained (6S)-5-MTHF calcium salt,storage 3 days,99.1%
same,Appearance,storage 6 days,White crystal
same,Content of remained (6S)-5-MTHF calcium salt,storage 6 days,99.1%
same,Appearance,storage 9 days,White crystal
same,Content of remained (6S)-5-MTHF calcium salt,storage 9 days,98.4%
